Experimental data taken from paper PMC7933930, “Development of a small molecule that corrects misfolding and increases secretion of Z α1‐antitrypsin” (EMBO Molecular Medicine, 2021).

What was measured:
Serotonin 5HT3 = biological target: T1, Serotonin 5HT3 (Homo sapiens, UniProt P46098); assay: Off‐target panel: Serotonin 5HT3; type: cell-based
T1 sequence (P46098 24-478): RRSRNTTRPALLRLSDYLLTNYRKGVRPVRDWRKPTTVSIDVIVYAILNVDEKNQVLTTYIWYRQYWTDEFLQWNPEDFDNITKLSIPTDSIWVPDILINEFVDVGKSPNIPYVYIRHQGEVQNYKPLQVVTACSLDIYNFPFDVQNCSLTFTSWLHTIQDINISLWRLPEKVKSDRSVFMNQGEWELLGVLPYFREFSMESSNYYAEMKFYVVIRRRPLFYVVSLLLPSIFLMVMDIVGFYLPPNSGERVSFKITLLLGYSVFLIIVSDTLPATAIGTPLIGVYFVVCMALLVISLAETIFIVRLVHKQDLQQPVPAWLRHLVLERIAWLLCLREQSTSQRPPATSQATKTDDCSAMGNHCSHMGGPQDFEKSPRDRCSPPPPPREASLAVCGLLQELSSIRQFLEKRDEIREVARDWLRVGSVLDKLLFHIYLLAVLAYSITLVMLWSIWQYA
Procedure: (§1) GSK716 selectivity and PK properties were profiled in order to investigate the suitability of GSK716 for progression into in vivo studies and the potential for taking it forward as a clinical candidate for testing in humans. Since GSK716 results in loss of inhibitory activity of α1‐antitrypsin, the effect of the compound was assessed on other closely related serpins. […] Furthermore, there were no off‐target effects in a panel of assays considered predictive of known safety liabilities that precluded further development of GSK716 (Table EV1).

Muscarinic M2 = biological target: T2, Muscarinic M2 (Homo sapiens, UniProt P08172); assay: Off‐target panel: Muscarinic M2; type: cell-based
T2 sequence (P08172 1-466): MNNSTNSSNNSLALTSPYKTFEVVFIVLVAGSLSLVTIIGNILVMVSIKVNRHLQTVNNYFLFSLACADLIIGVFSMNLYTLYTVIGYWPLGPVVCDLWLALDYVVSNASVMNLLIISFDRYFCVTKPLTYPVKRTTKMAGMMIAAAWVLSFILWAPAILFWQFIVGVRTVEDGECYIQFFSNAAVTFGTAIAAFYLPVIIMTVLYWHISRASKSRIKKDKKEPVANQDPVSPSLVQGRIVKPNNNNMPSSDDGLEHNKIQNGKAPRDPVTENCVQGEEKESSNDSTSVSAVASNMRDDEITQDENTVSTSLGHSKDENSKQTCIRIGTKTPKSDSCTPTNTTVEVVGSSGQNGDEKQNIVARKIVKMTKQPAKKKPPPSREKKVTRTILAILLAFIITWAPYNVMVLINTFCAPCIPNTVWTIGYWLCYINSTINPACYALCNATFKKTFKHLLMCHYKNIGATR
Procedure: as §1

[1] = Oral pharmacokinetics in male CD‐1 mouse; type: in vivo
Procedure: Male CD‐1 mice, Han Wistar rats or beagle dogs were administered GSK716 as a suspension in 1% w/v aqueous methylcellulose via oral gavage at doses of 1 mg/kg (dog) or 10, 30 and 100 mg/kg (mouse, rat). Blood samples were taken into EDTA, diluted and mixed with acetonitrile containing internal standard (alprazolam) and centrifuged to precipitate proteins. Aliquots of the resultant supernatant were analysed by LC‐MS/MS, and concentrations of GSK716 in blood were determined. Non‐compartmental pharmacokinetic analysis (NCA) was carried out using Phoenix WinNonLin 6.3 (Certara L.P.). Free drug was measured in Z α1‐antitrypsin transgenic mice by dialysing tissue samples in rapid equilibrium dialysis cassettes.

Monoamine oxidase A = Monoamine oxidase A (Homo sapiens, UniProt P21397); assay: Off‐target panel: Monoamine oxidase A; type: biochemical; conditions: Inhibition, read-out: Mean (PXC50)
Procedure: as §1

Serotonin transporter = Serotonin transporter (Homo sapiens, UniProt P31645); assay: Off‐target panel: Serotonin transporter (DRX); type: cell-based
Procedure: as §1

Adrenergic β2 = Adrenergic β2 (Homo sapiens, UniProt P07550); assay: Off‐target panel: Adrenergic β2 (DRX); type: cell-based; conditions: read-out: Mean (PXC50)
Procedure: as §1

Cell Health = assay: Off‐target panel: Cell Health; type: cell-based
Procedure: as §1

Sequence of Adrenergic β2 (P07550 whole entry): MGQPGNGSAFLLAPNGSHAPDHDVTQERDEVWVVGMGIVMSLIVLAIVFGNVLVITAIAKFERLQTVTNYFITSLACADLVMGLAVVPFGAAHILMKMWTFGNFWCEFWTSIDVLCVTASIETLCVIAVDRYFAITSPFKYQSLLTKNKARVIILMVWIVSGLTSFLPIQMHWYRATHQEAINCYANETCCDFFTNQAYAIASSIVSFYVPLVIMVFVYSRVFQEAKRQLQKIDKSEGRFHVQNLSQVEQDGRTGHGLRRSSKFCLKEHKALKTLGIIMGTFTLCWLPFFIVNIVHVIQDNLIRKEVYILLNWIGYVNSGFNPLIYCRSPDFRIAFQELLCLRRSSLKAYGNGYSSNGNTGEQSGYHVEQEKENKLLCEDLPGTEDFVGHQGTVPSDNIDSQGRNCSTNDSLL
Sequence of Serotonin transporter (P31645 whole entry): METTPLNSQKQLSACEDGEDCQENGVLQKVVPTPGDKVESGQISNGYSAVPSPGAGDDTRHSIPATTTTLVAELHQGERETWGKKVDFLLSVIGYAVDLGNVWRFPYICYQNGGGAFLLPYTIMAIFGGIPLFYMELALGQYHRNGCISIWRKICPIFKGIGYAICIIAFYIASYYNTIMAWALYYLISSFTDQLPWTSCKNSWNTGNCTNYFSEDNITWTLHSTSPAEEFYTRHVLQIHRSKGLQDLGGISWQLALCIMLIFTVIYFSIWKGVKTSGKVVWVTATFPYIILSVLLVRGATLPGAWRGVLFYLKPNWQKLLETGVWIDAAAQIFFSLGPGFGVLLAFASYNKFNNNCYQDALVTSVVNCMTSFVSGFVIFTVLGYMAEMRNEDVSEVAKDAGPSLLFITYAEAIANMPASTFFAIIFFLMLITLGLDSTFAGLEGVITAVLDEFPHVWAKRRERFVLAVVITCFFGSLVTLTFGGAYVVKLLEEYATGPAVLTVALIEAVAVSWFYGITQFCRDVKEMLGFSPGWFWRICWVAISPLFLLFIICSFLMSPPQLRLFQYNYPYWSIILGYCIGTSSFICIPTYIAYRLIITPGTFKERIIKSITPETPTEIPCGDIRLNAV
Sequence of Monoamine oxidase A (P21397 whole entry): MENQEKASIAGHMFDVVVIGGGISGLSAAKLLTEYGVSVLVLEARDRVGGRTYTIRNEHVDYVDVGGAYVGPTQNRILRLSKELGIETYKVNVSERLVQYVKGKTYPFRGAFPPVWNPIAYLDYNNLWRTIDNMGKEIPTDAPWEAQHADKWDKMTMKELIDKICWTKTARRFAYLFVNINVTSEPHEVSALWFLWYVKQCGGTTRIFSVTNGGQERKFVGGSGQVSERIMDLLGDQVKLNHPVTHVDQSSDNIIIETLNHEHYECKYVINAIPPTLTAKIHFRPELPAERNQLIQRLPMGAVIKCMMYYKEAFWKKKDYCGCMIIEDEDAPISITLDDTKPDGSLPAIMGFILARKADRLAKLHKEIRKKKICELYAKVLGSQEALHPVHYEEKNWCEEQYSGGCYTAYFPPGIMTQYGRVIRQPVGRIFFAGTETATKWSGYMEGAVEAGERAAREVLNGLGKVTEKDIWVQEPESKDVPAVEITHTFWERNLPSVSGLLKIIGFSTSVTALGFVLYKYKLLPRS

CCC[C@@H](NC(=O)c1cccc2c1CC(=O)N2)[C@@H](O)c1cccc(F)c1C [GSK716]
EC50 (Serotonin 5HT3): > 50.1 µM
IC50 (Serotonin 5HT3): 31.6 µM
EC50 (Muscarinic M2): > 50.1 µM
IC50 (Muscarinic M2): > 50.1 µM
DNAUCinf in blood ([1]; single PO 10 mg/kg): 202 ± 101
DNAUCinf in blood ([1]; single PO 30 mg/kg): 294 ± 47
DNAUCinf in blood ([1]; single PO 100 mg/kg): 403 ± 246
IC50 (Monoamine oxidase A): > 100 µM
IC50 (Serotonin transporter): > 100 µM
EC50 (Adrenergic β2; Agonist): > 100 µM
IC50 (Adrenergic β2; Antagonist): > 100 µM
Mean (PXC50) (Cell Health; Membrane Permeability): <3.7
Mean (PXC50) (Cell Health; Mitochondrial Potential): 3.8
Mean (PXC50) (Cell Health; Nucleus (size)): <3.7
